Reference: publication PMC5607274, “An iterative compound screening contest method for identifying target protein inhibitors using the tyrosine-protein kinase Yes” (Scientific Reports, 2017)

These compounds were tested against T1, human recombinant Yes [a.a. 2–543 (end)] (Homo sapiens, UniProt P07947) (assay: ADP-Glo kinase assay, inhibition rates of Yes phosphorylation activity (first and second screening)). Settings: first screening; mean of n = 4 wells; 10 μmol L−1 compound.
T1 construct: human recombinant Yes [a.a; 2–543 (end)]; purchased BPS Bioscience 40488
T1 sequence (P07947 2-543): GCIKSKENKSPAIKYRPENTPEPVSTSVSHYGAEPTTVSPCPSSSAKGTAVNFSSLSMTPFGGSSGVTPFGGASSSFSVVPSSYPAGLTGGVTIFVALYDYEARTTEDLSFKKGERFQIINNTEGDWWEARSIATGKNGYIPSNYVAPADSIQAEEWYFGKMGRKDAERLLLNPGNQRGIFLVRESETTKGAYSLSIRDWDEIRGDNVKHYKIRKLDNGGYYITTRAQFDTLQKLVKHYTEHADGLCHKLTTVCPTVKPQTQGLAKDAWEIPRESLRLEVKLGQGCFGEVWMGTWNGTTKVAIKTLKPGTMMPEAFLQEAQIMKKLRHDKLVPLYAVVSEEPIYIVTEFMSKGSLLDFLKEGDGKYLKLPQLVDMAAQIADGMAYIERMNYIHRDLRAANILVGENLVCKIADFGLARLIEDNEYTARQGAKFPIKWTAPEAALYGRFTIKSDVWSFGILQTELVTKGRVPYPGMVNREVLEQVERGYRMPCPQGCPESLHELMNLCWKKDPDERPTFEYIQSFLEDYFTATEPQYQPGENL
Assay type: biochemical
In short: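 ADP-Glo luminescence measured inhibition of human recombinant Yes (a.a. 2–543) phosphorylation activity. In the first screen, each compound ran in 4 wells and inhibition rates were averaged. The second screen retested hits as compounds dissolved from fresh powder.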

Q: How did the “First screening IR (inhibition rate)” value turn out when `CS(=O)(=O)c1ccc(Cl)c(S(C)(=O)=O)c1` [Compound Z87002147] was run?
A: 0%

Q: Which “First screening IR (inhibition rate)” value does the source give for `O=C(Nc1nc(-c2ccccc2)cs1)c1cc2ccccc2s1` [Compound Z87524039] here?
A: 20%

Q: With `O=C(NCC1(N2CCCCC2)CCCCC1)c1ccc(S(=O)(=O)NC2CC2)cc1` [Compound Z87649109] as the compound, how does the “First screening IR (inhibition rate)” value read?
A: -3%

Q: `CC(NC(=O)c1ccc(-n2cnc3ccccc32)cc1)c1ccc(S(N)(=O)=O)cc1` (stereo not shown) [Compound Z87656555] was tested. Which “First screening IR (inhibition rate)” value did it give?
A: -5%

Q: How did the “First screening IR (inhibition rate)” value turn out when `O=C(NCC(c1ccccc1Cl)N1CCCC1)C1CCN(C(=O)c2cccs2)CC1` (stereo not shown) [Compound Z87671607] was run?
A: -35%

Q: For `N#Cc1ccccc1CSCCNC(=O)c1ccc2nc[nH]c2c1` [Compound Z88237436], which “First screening IR (inhibition rate)” value is on record?
A: -1%

Q: With `O=C(c1cccnc1N1CCCC1)N1CCN(C(=O)C2COc3ccccc3O2)CC1` (stereo not shown) [Compound Z88468962] as the compound, how does the “First screening IR (inhibition rate)” value read?
A: -8%

Q: For `CC(NCc1ccc(C(=O)Nc2ccccc2)cc1)c1ccc2c(c1)OCCO2` (stereo not shown) [Compound Z89008298], which “First screening IR (inhibition rate)” value is on record?
A: -38%

Q: `O=S(=O)(c1ccc(Br)cc1Cl)N1CCN(Cc2cn3ccccc3n2)CC1` [Compound Z89065969] was tested. Which “First screening IR (inhibition rate)” value did it give?
A: -1%

Q: `N#Cc1ccc(CN2CCN(Cc3c(-c4ccccc4)nc4sccn34)CC2)cc1` [Compound Z89137945] was tested. Which “First screening IR (inhibition rate)” value did it give?
A: -31%

Q: For `O=S(=O)(c1ccccc1Cl)N1CCN(Cc2cn3ccccc3n2)CC1` [Compound Z89155296], which “First screening IR (inhibition rate)” value is on record?
A: 15%

Q: For `C=CCN(CC(=O)Nc1ccc(S(=O)(=O)N(CC)CC)cc1)Cc1cccs1` [Compound Z89203975], which “First screening IR (inhibition rate)” value is on record?
A: 16%

Q: Which “First screening IR (inhibition rate)” value does the source give for `COc1ccc(CN2CCN(Cc3c(-c4ccccc4)nc4ccccn34)CC2)cc1OC` [Compound Z89207636] here?
A: 45%

Q: Which “First screening IR (inhibition rate)” value does the source give for `Cc1ccc(-c2c(C)sc3nc(CN4CCN(CC(=O)N5CCOCC5)CC4)[nH]c(=O)c23)cc1` [Compound Z89215884] here?
A: 5%

Q: With `COc1ccc(S(=O)(=O)N(C)C2CCS(=O)(=O)C2)cc1` (stereo not shown) [Compound Z89320750] as the compound, how does the “First screening IR (inhibition rate)” value read?
A: 2%

Q: `Cc1ccc(S(=O)(=O)N(C)C2CCS(=O)(=O)C2)cc1C` (stereo not shown) [Compound Z89320796] was tested. Which “First screening IR (inhibition rate)” value did it give?
A: 2%

Q: For `CN(C1CCS(=O)(=O)C1)S(=O)(=O)c1cc(Cl)cc(Cl)c1` (stereo not shown) [Compound Z89320874], which “First screening IR (inhibition rate)” value is on record?
A: 17%

Q: How did the “First screening IR (inhibition rate)” value turn out when `CCc1ccc(S(=O)(=O)N(C)C2CCS(=O)(=O)C2)cc1` (stereo not shown) [Compound Z89320983] was run?
A: 10%

Q: Which “First screening IR (inhibition rate)” value does the source give for `CCN(C1CCS(=O)(=O)C1)S(=O)(=O)c1cc(Br)ccc1C` (stereo not shown) [Compound Z89358343] here?
A: 1%

Q: With `CC1Cc2cc(C(=O)NC3(C)CCS(=O)(=O)C3)ccc2N1S(C)(=O)=O` (stereo not shown) [Compound Z89460412] as the compound, how does the “First screening IR (inhibition rate)” value read?
A: 10%

Q: How did the “First screening IR (inhibition rate)” value turn out when `Cc1oc(-n2cccc2)c(C#N)c1C(=O)Nc1cccc(/C=C/c2ccccn2)c1` [Compound Z89489183] was run?
A: 9%

Q: `Cc1noc(C)c1COc1ccccc1C(=O)NCCSc1ccc(Cl)cc1` [Compound Z89513568] was tested. Which “First screening IR (inhibition rate)” value did it give?
A: 17%

Q: `O=C(/C=C/c1ccsc1)NC(c1ccccc1)c1cccs1` (stereo not shown) [Compound Z89582531] was tested. Which “First screening IR (inhibition rate)” value did it give?
A: 1%

Q: With `Cc1cc(/C=C/C(=O)N2CCN(C3CCS(=O)(=O)C3)CC2)c(C)n1-c1ccc2c(c1)OCO2` (stereo not shown) [Compound Z89622401] as the compound, how does the “First screening IR (inhibition rate)” value read?
A: -12%

Q: `Cc1ccc(C(=O)OCc2nc(N)nc(Nc3ccccc3)n2)s1` [Compound Z89671452] was tested. Which “First screening IR (inhibition rate)” value did it give?
A: -2%

Q: `Cc1nn(Cc2ccccc2)c(Cl)c1C(=O)OCc1nc(N)nc(Nc2ccccc2)n1` [Compound Z89784395] was tested. Which “First screening IR (inhibition rate)” value did it give?
A: 0%

Q: `Cc1ccc(Cn2nc(C)c(C(=O)OCc3nc(N)nc(Nc4ccccc4)n3)c2Cl)cc1` [Compound Z89857426] was tested. Which “First screening IR (inhibition rate)” value did it give?
A: 22%

Q: `c1csc(-c2noc(CSc3nnc(C4CC4)n3C3CC3)n2)c1` [Compound Z90118492] was tested. Which “First screening IR (inhibition rate)” value did it give?
A: 4%

Q: For `CCn1ncc2c(C(=O)OC)cc(-c3ccccc3)nc21` [Compound Z90171664], which “First screening IR (inhibition rate)” value is on record?
A: 11%

Q: How did the “First screening IR (inhibition rate)” value turn out when `CCn1ncc2c(C(=O)OC)cc(-c3cccs3)nc21` [Compound Z90171904] was run?
A: 20%

Q: How did the “First screening IR (inhibition rate)” value turn out when `O=S(=O)(c1c(Cl)cccc1Cl)N1CCN(Cc2nc(-c3cccc(Cl)c3)no2)CC1` [Compound Z90231169] was run?
A: -8%

Q: Which “First screening IR (inhibition rate)” value does the source give for `O=S(=O)(c1ccccc1Cl)N1CCN(Cc2nc(-c3cccc(Cl)c3)no2)CC1` [Compound Z90240663] here?
A: -3%

Q: For `COC(=O)c1cc(-c2ccc(F)cc2)nc2c1c(C)nn2C1CCS(=O)(=O)C1` (stereo not shown) [Compound Z90289702], which “First screening IR (inhibition rate)” value is on record?
A: -1%

Q: For `COC(=O)c1cc(-c2ccc(C)cc2)nc2c1cnn2C(C)C` [Compound Z90671680], which “First screening IR (inhibition rate)” value is on record?
A: 26%

Q: Which “First screening IR (inhibition rate)” value does the source give for `Cn1c(CNS(=O)(=O)c2ccc(C(F)(F)F)cc2)nc2ccccc21` [Compound Z90694917] here?
A: -18%

Q: How did the “First screening IR (inhibition rate)” value turn out when `CCCn1c(C)cc(-c2csc(NC(=O)CCN3C(=O)COc4ccccc43)n2)c1C` [Compound Z90896104] was run?
A: -7%

Q: `O=C(CCCC1CCCCC1)Nc1ccc(-c2cnc[nH]2)cc1` [Compound Z91026356] was tested. Which “First screening IR (inhibition rate)” value did it give?
A: 0%

Q: With `CC(NC(=O)CCc1c[nH]c2ccccc12)c1cc2ccccc2o1` (stereo not shown) [Compound Z91037735] as the compound, how does the “First screening IR (inhibition rate)” value read?
A: 1%

Q: Which “First screening IR (inhibition rate)” value does the source give for `COC(=O)c1cc(-c2ccc(OC)c(OC)c2)nc2c1c(C)nn2C1CCS(=O)(=O)C1` (stereo not shown) [Compound Z91043666] here?
A: 2%

Q: For `COC(=O)c1cc(-c2ccccc2F)nc2c1cnn2C(C)C` [Compound Z91043804], which “First screening IR (inhibition rate)” value is on record?
A: -6%

Q: Which “First screening IR (inhibition rate)” value does the source give for `CC(C)C(NC(=O)c1ccc(S(=O)(=O)N(C)C)cc1)c1ccc2c(c1)OCCCO2` (stereo not shown) [Compound Z91218489] here?
A: 5%

Q: With `Cc1ccccc1-n1c(SCC(=O)c2cc(C)n(CC3CCCO3)c2C)nnc1N1CCOCC1` (stereo not shown) [Compound Z92475228] as the compound, how does the “First screening IR (inhibition rate)” value read?
A: 14%

Q: `Cc1cccc(-n2c(SCC(=O)c3cc(C)n(CC4CCCO4)c3C)nnc2N2CCOCC2)c1` (stereo not shown) [Compound Z92479374] was tested. Which “First screening IR (inhibition rate)” value did it give?
A: 3%

Q: Which “First screening IR (inhibition rate)” value does the source give for `O=C(CSc1nnc(-c2cccnc2)n1C1CC1)Nc1nc(-c2ccc(F)cc2)cs1` [Compound Z92534919] here?
A: 10%

Q: With `Cc1cc(NC(=O)Cn2nc(C)c(S(=O)(=O)N3CCCCC3)c2C)no1` [Compound Z92593810] as the compound, how does the “First screening IR (inhibition rate)” value read?
A: -4%

Q: Which “First screening IR (inhibition rate)” value does the source give for `O=C(OCc1cccc(C(F)(F)F)c1)c1n[nH]c(=O)c2ccccc12` [Compound Z94561070] here?
A: -11%

Q: With `O=C1COc2ccc(C(=O)/C=C/c3ccc(OC(F)F)cc3)cc2N1` [Compound Z94572736] as the compound, how does the “First screening IR (inhibition rate)” value read?
A: 3%

Q: Which “First screening IR (inhibition rate)” value does the source give for `Cc1nn(-c2ccccc2)c(Cl)c1CN1CCN(S(=O)(=O)c2ccccc2C(F)(F)F)CC1` [Compound Z94609806] here?
A: 3%

Q: With `O=C(NCc1ccncc1)c1cnn(-c2ccc(Cl)cc2)c1C(F)(F)F` [Compound Z94739043] as the compound, how does the “First screening IR (inhibition rate)” value read?
A: 6%

Q: How did the “First screening IR (inhibition rate)” value turn out when `COc1ccc(-c2cc(-c3cc4ccccc4o3)nc3c2cnn3C(C)C)cc1` [Compound Z94751514] was run?
A: 3%

Q: With `O=C1Nc2ccccc2/C1=C\c1cnn(-c2ccccc2)c1` [Compound Z95045593] as the compound, how does the “First screening IR (inhibition rate)” value read?
A: 32%

Q: How did the “First screening IR (inhibition rate)” value turn out when `O=C1Nc2cc(Cl)ccc2/C1=C\c1cnn(-c2ccccc2)c1` [Compound Z95046696] was run?
A: 4%
